ChEMBL document CHEMBL1158023, “Sideroxylonal C, a new inhibitor of human plasminogen activator inhibitor type-1, from the flowers of Eucalyptus albens” (J Nat Prod, 1999)

molecular target: Plasminogen activator inhibitor 1 (Homo sapiens, UniProt P05121); experiment: Inhibition of human PAI1 using tissue type plasminogen activator substrate by chromogenic absorbance at 405 nm
Sequence (P05121 whole entry): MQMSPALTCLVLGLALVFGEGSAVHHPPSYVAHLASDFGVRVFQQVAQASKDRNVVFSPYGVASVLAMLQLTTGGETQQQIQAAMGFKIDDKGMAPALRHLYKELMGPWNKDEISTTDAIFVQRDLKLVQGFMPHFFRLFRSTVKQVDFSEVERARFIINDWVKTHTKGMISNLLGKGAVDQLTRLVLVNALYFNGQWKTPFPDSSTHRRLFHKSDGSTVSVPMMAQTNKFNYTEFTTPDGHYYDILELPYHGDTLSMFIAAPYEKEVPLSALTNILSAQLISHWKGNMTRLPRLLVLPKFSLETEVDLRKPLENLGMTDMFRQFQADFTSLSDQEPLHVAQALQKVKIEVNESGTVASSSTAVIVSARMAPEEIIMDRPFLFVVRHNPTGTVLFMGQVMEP

IC50 [µM]	Structure (SMILES)
152	CC(C)C[C@@H]1C[C@@]2(CC[C@@H]3C[C@H]2C3(C)C)Oc2c(C=O)c(O)c(C=O)c(O)c21 [ROBUSTADIAL A]
5.3	CC(C)C[C@@H]1c2c(O)c(C=O)c(O)c(C=O)c2O[C@@H](c2c(O)c(C=O)c(O)c(C=O)c2O)[C@H]1C(C)C [SIDEROXYLONAL B]
138	CC(C)C[C@@H]1c2c(O)c(C=O)c(O)c(C=O)c2O[C@]2(C)C=C[C@@H](C(C)C)C[C@H]12 [EUGLOBAL IA2]
3.3	CC(C)C[C@@H]1c2c(O)c(C=O)c(O)c(C=O)c2O[C@@H](c2c(O)c(C=O)c(O)c(C=O)c2O)[C@@H]1C(C)C [SIDEROXYLONAL A]
4.7	CC(C)C[C@H]1c2c(O)c(C=O)c(O)c(C=O)c2O[C@@H](c2c(O)c(C=O)c(O)c(C=O)c2O)[C@@H]1C(C)C [SIDEROXYLONAL C]
700	CC(C)CC(=O)c1c(O)c(C=O)c2c(c1O)C[C@H]1C[C@H](C(C)C)C=C[C@@]1(C)O2 [EUGLOBAL IIC]
